The values below come from patent US20210093625A1, “COMBINATION THERAPY” (Celleron Therapeutics Limited, priority 2019, published 2021).

One data set concerns the target HDAC1 (Homo sapiens, UniProt Q13547). Kind of data set: HDAC1 inhibition. The format is biochemical.
A further data set addresses HDAC2 (Homo sapiens, UniProt Q92769). Kind of data set: HDAC2 inhibition. Format: biochemical.
A further data set deals with HDAC3 (Homo sapiens, UniProt O15379). Kind of data set: HDAC3 inhibition. Format: biochemical.
HDAC3, sequence (O15379 whole entry, species assumed): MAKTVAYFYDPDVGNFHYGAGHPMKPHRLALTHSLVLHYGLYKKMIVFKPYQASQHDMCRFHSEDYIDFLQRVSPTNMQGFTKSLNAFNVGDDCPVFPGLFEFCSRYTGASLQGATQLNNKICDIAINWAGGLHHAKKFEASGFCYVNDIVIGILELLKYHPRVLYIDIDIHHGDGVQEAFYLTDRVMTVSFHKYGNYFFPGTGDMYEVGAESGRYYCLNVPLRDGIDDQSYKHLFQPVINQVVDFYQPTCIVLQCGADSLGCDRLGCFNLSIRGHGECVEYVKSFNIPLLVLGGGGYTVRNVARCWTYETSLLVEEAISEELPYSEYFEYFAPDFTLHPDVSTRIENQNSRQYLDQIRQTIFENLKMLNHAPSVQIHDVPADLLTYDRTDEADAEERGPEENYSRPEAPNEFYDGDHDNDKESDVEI
HDAC3, sequence (Q9Y618 395-489 partner limits assumed, species assumed): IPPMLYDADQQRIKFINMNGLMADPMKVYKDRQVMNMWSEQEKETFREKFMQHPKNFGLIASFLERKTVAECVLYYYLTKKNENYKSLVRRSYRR
Data set [1] relates to SW620 cells. As to the kind of experiment: RNA-seq of SW620 cells. The format is cell-based, human. The protocol:
We performed RNA-seq on polyA-enriched RNA to assess the effect of CXD101 on the global transcript profile in SW620 cells compared to the vehicle-alone (DMSO) treatment (18). The FASTQ data were aligned to the reference human genome (hg19) with STAR aligner and analysed for differential expression using Bioconductor and DESeq2 R suite (19). The sequencing data were of high quality with on average 92% of the reads able to be mapped to the genome (FIG. 1b).
(§1) SW620 cells were seeded into 6-well plates and left to adhere overnight. Cells were treated with 1 μM, 10 μM of CXD101 for 48 h. CT26 cells were seeded onto 100 mm plates and treated with 2.7 μM and 10 μM CXD101 for 72 h. After treatment cells were harvested and total RNA extracted by means of Promega ReliaPrepμ RNA Cell Miniprep System (Promega, USA). RNA was dissolved in RNAse free water and stored in −80° C. for future analysis. RNA concentration was measured by NanoDrop 2000 (Thermo Fisher Scientific, USA). Samples were qualified for library preparation if […]. Library preparation with poly (A) enrichment was performed by BGI.
(§2) FASTQ files for CXD101 and DMSO treated samples in three biological replicates were trimmed to remove adapters and low-quality bases with TrimGalore v.0.4.3(http://www.bioinformatics.babraham.ac.uk/projects/trim_galore/). The trimmed reads were aligned to the human reference genome (build hg19) with STAR aligner v.2.7 with two mismatches allowed. Differential gene expression analysis was done with the Bioconductor framework (v.3.8) and DESeq2 R package v.1.22, using read count data provided by the aligner. Genes were considered differentially expressed if the adjusted P, calculated using the Benjamini-Hochberg method in order to minimise the false discovery rate, was less than 0.01 (1%) and the change in expression level was greater than ˜2-fold as compared to DMSO control (e.g. |log_2(expression fold change) |>1).

In data set [2] the test system is SW620 cells. As to the kind of experiment: qPCR of single genes in SW620 cells. The format is cell-based, human. The following applies: control gene, FIG. 3. The protocol: Total RNA purified from DMSO- or CXD101treated cells was transcribed into cDNA according to the manufacturer's instructions (iScript cDNA Synthesis Kit, Bio-Rad, USA). qPCR was conducted according to the manufacturer's protocol (SsoAdvanced Universal SYBR Green Supermix, Bio-Rad Laboratories, USA) on CFX Connect Real-Time System thermocycler (Bio-Rad Laboratories, USA).
For orientation: In qPCR the cycle at which signal appears reflects the starting amount.

Another data set deals with colon26 cells. Kind of data set: RNAseq of colon26 cells in vitro. The format is cell-based, mouse. The following applies: for differentially expressed genes that are immune-related: out of 1142 DEGs.
Excerpt: The RNAseq data was aligned to the reference M.musculus genome (mm10) with STAR aligner and analysed for differential expression. […] Out of 1142 differentially expressed genes identified following CXD101 treatment, 36% (416) were immune-related when analysed using the immunogenicity database (ref), and 34% (388) and 15% (176) when analysed with Import and Immunome databases (ref). We further evaluated transcripts identified in the colon26 RNAseq at the single gene level, focussing on murine genes which are homologues of the immune-related genes identified in human SW620 cells, which included genes in the murine MHC H2 complex. A number of H2 genes including class I and class II genes were induced including H2-D1, DMA, DMB1 and EB1 (FIG. 6).
as §1, §2

In another data set the test system is colon26 tumours. Kind of data set: RNAseq of colon26 tumours. Format: in vivo, Balb/c mice. The following applies: log2FC >1 and FDR <1%. The protocol: To assess gene expression in tumours that were growing in vivo, we evaluated the effect of CXD101 in the syngeneic colon26 colon carcinoma model in tumours grown subcutaneously in Balb/c mice, with CXD101 given orally for two 5-day consecutive periods and performed RNAseq on RNA purified from the tumours. Formalin-fixed paraffin-embedded samples were also prepared to assess by immunohistochemistry (IHC) the tumour micro-environment.
The effect was dose-dependent, as more tumour-inhibition occurred with a higher dose of CXD101 (50 mg/kg compared to 15 mg/kg). […] We performed RNA seq on polyA-enriched RNA prepared from the tumours. In a similar way to the analysis of colon26 in vitro, the RNAseq data was aligned to the reference M.musculus genome (mm10) with STAR aligner and analysed for differential expression.

The nature of the next data set: physchem. The following applies: 25 °C, aqueous buffer.
For data set [3] the following is noted: human patients, cited from earlier work.
Where [4] appears, read: colon26 cells in vitro, log2 FC >1 and FDR <1%.

HDAC1, sequence (Q13547 whole entry, species assumed): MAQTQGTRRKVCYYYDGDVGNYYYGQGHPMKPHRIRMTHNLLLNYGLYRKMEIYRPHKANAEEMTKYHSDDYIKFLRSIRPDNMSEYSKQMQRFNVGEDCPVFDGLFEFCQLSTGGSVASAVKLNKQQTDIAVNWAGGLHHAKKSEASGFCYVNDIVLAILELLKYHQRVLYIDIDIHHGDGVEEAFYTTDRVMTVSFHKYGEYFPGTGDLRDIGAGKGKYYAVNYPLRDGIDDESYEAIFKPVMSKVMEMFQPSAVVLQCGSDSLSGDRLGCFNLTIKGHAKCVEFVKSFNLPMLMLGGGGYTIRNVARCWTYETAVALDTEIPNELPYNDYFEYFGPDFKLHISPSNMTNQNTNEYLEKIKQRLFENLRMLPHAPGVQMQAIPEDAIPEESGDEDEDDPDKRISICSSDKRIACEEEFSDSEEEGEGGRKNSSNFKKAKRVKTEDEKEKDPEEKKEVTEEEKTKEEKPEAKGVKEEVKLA
HDAC2, sequence (Q92769 whole entry, species assumed): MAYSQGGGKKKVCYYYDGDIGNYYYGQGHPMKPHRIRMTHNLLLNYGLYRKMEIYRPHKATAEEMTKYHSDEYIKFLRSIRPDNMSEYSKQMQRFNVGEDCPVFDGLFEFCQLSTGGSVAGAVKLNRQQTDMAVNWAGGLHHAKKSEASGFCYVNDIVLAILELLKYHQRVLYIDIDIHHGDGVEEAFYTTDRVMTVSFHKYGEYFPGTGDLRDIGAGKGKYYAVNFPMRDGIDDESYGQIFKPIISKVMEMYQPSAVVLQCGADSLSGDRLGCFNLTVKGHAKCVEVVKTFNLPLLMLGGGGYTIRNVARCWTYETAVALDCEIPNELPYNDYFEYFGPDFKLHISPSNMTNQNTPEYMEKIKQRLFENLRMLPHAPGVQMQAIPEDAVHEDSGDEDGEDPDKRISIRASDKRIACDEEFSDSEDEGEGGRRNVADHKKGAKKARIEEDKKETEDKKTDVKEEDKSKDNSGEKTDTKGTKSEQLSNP

As for `Cc1nn(C)cc1CN1CCC(c2ccc(C(=O)Nc3ccccc3N)cc2)CC1` [CXD101, N-(2-aminophenyl)-4-(1-[(1,3-dimethyl-1H-pyrazol-4-yl)methyl]piperidin-4yl)benzamide], the IC50 was 63 nM at HDAC1, 570 nM against HDAC2 and 550 nM at HDAC3. Further, the “proportion of DEGs down-regulated” value in the data set on SW620 cells [1] (SW620) stood at 30%. Also, the “proportion of DEGs up-regulated” value in the data set with SW620 cells [1] (SW620) was 70%. Further, the “number of differentially expressed transcripts (DEGs)” value in the data set on SW620 cells [1] (SW620, log2 FC >1 and FDR <1%, vs DMSO) was “about 2500”. Besides, the “expression of REPIN1” value in the data set with SW620 cells [2] was “no effect”. For the same compound, the genes down-regulated in the data set with colon26 cells (setting [4]) is 611. The genes up-regulated in the data set on colon26 cells (setting [4]) amounted to 1891. The “size of DEG set in vitro” value in the data set on colon26 cells (colon26 cells, log2FC >1 and FDR <1%) came out at 2502. In addition, the “differentially expressed genes that are immune-related” value was 15% in the data set with colon26 cells (Immunome database), 34% in the data set on colon26 cells (Import database) and 36% in the data set with colon26 cells (immunogenicity database). Further, the “size of DEG set in vivo” value in the data set with colon26 tumours amounted to 1141. Moreover, in the data set “physchem”, the solubility is not below 500 µg/mL. Moreover, the MTD in data set [3] (for 5 days in a 3-weekly cycle) is reported as 20 mg B.D. For the same compound, in data set [3], the safety profile entry is listed as “favourable safety profile”.

As usually defined, the IC50 is the concentration at which inhibition is half-maximal. A high value points to weaker potency. Broadly, the solubility is the concentration that dissolves in the medium under given conditions.
